No end group written: not given here.
Assays:
[1] = test system: Enterococcus faecalis (NCTC 12697); type: cell-based; conditions: NCTC 12697, pH 7.4
Protocol: (§1) The minimum inhibitory concentration (MIC) and minimum bactericidal concentration (MBC) of peptides against the selected microorganisms were determined using the broth-dilution method, as described in the previous study. […] were used in the assay: Gram-positive bacteria Staphylococcus aureus (NCTC 10788), Enterococcus faecalis (NCTC 12697), and methicillin-resistant S. aureus (MRSA) (NCTC 12493); Gram-negative bacteria Escherichia coli (NCTC 10418), Pseudomonas aeruginosa (ATCC 27853), and Klebsiella pneumoniae (ATCC 43816). All the strains were cultured in Mueller Hinton Broth (MHB), pH 7.4 (Oxiod, Basingstoke, UK). Each peptide was tested at the final concentration from 128 to 1 µM in two-fold dilution. Norfloxacin was applied as the positive control.

[2] = test system: Escherichia coli (NCTC 10418); type: cell-based; conditions: NCTC 10418, pH 7.4
Protocol: as §1

[3] = test system: Klebsiella pneumoniae (ATCC 43816); type: cell-based; conditions: ATCC 43816, pH 7.4
Protocol: as §1

[4] = test system: Pseudomonas aeruginosa (ATCC 27853); type: cell-based; conditions: ATCC 27853, pH 7.4
Protocol: as §1

[5] = test system: Staphylococcus aureus (NCTC 10788); type: cell-based; conditions: NCTC 10788, pH 7.4
Protocol: as §1

[6] = test system: methicillin-resistant S. aureus (MRSA) (NCTC 12493); type: cell-based; conditions: NCTC 12493, pH 7.4
Protocol: as §1

S. aureus (NCTC 10788) = assay: SYTOX Green stain uptake assay (membrane permeabilization); type: cell-based; conditions: peptide 10 µM, within 120 min, 37 °C, relative to 70% isopropanol-treated cells, three replicates
Protocol: Figure 10 Membrane permeabilization effect of TPF and the analogs (10 µM) on Gram-positive bacteria S. aureus was indicated by the uptake of SYTOX Green dye over 120 min. The error bar represents SD of three replicates.
A membrane permeability assay was conducted on S. aureus (NCTC 10788) and E.coli (NCTC 10418) using the SYTOX™ Green Nucleic Acid Stain (Thermo Fisher Scientific, Waltham, MA, USA) as described previously, with some modifications. For S. aureus, to obtain the fluorescence kinetics of membrane permeabilization, the bacterial suspension and peptide solutions, prepared in 5% tryptic soy broth (TSB) (v/v) in 0.85% NaCl solution (m/v), were mixed to give a final concentration at 10 µM in a black 96-well plate, and further incubated for 120 min at 37 °C. Subsequently, 5 µM SYTOX Green nucleic acid stain was added into each well and immediately detected by a fluorescent plate reader with excitation of 485 nm and emission of 528 nm. The total permeabilized cells of S. aureus were prepared by treating with 70% isopropanol and further resuspended in 5% TSB/0.85% NaCl solution after washing.

[7] = Observation of aggregation: turbidity (absorbance at 600 nm) in media and salt solutions; type: physicochemical; conditions: peptide 1 mg/mL; 0.25, 0.5 and 1 M Na2HPO4, CaCl2 or MgCl2; absorbance 600 nm
Protocol: Figure 3 The absorbance of TPF and the analogs prepared in (a) a series of culture media, including PBS, RPMI1640, RPMI1640 with 10% FBS, TSB, and MHB; 0.25, 0.5, and 1 M of (b) Na2HPO4, (c) CaCl2, and (d) MgCl2 solutions. Peptide solutions were prepared from 1 mg/mL, and the wavelength was set as 600 nm. The error bar represents the standard deviation (SD) with three replicates.
The method was followed the previous study with modifications. The purified peptides were prepared at 10 mg/mL in water and subsequently diluted with different solutions, including PBS, RPMI1640, RPMI1640 with 10% FBS, TSB, MHB, Na2HPO4 (0.25, 0.5, and 1 M), CaCl2 (0.25, 0.5, and 1 M), and MgCl2 (0.25, 0.5, and 1 M), in a 96-well plate to achieve the final concentration of 1 mg/mL. The turbidity of each well was detected using the absorbance at 600 nm by a plate reader. The peptides dissolved in water were applied as negative control.

[8] = RP-HPLC retention order of mixed peptides (overall hydrophobicity); type: physicochemical; conditions: peptides mixed in equal ratio and subjected to RP-HPLC; Supplementary Figure S4
Protocol: All peptides were chemically synthesized and purified by RP-HPLC. They were further mixed with an equal ratio and subjected to RP-HPLC. […] Subsequently, all peptides (1 mg/mL) were dissolved in a series of widely used culture media (Figure 2).
N-terminal Phe of temporin was believed to participate in the packaging of “head-tail” oligomerization. […] Furthermore, Trp/D-Trp substitution carried out on des-Phe1 TPF enhanced the peptide aggregation. […] It may be related to the decrease of the helical content; however, it could also be caused by the change of aggregation effects. Previous studies have shown that AMPs with strong antimicrobial activity are present as monomers in an aqueous solution and aggregate on the membrane to disrupt the bacterial cell membrane. […] It has been proposed that some aggregation effects of AMPs could limit the interaction of the peptide with its target, thereby reducing the antibacterial efficacy. In the previous study, the zipper-like motif is associated with the bioactivities as well as the assembly in the LPS micelles, which was considered to arise from hydrophobic interactions mainly. However, the overall hydrophobicity of Trp/D-Trp substituted analogs is less than that of des-Phe1 TPF, as estimated by RP-HPLC analysis. We hypothesize that the enhanced assembly seen for Trp/D-Trp substituted analogs might be related to the increased content of aromatic residues, because it could promote the strength of π stacking or cation-π type interaction. However, the true relation has not been fully clarified so far, and the capability of aromatic moieties to promote aggregation could also be affected by the hydrophobicity, position, and the neighboring side chains in their three-dimensional conformation.

Substance: LPLIAGLFGKIF-NH2 [des-Phe1 TPF]
- MBC [1]: 32 µM
- MIC [1]: 32 µM
- MBC [2]: 128 µM
- MIC [2]: 64 µM
- MBC [3]: 128 µM
- MIC [3]: 128 µM
- MBC [4]: > 128 µM
- MIC [4]: > 128 µM
- MBC [5]: 16 µM
- MIC [5]: 16 µM
- MBC [6]: 32 µM
- MIC [6]: 32 µM
- membrane permeabilization (S. aureus (NCTC 10788)): over 50%
- aggregation (salting-out) in salt solutions [7]: low degree of capability for aggregation
- order of retention time (RP-HPLC, used as estimate of overall hydrophobicity) [8]: TPF> des-Phe1 TPF> W-des-Phe1 TPF> dW-des-Phe1 TPF

— article PMC8123395, “Aggregation and Its Influence on the Bioactivities of a Novel Antimicrobial Peptide, Temporin-PF, and Its Analogues” (International Journal of Molecular Sciences, 2021)
